# Patent publication US20230266303A1, “SYSTEM” (GTINVENT LIMITED, priority 2020, published 2023)
# Values joined by “and” are separate entries in the source; they are usually repeats but may differ in a detail not shown here. Identical values can stand only once.
# What was measured:
# Format in all cases: cell-based, human
# dSH-SY5Y cells = assay: Internalisation of dGAE-488 into cells by confocal microscopy
# Description: Undifferentiated SH-SY5Y human neuroblastoma cells were grown in Dulbecco's Modified Eagle Medium/Nutrient Mixture F-12 (DMEM/F-12) supplemented with 10% Foetal Calf Serum (FCS), 1% Penicillin/Streptomycin (P/S) and 1% L-glutamine. For differentiation, SH-SY5Y cells were plated at a density of 50,000 cells per well in 24-well plates or 300,000 cells per well in 6-well plates. For immunofluorescence, cells were plated onto Menzel-Gläser coverslips (Thermo Scientific). For live-cell imaging, cells were plated on 35-mm dishes on a 1.5-mm coverslip (Mattek). On the first day of differentiation, media was replaced with low-serum culture media (DMEM/F-12 containing 1% FCS, 1% P/S and 1% L-glutamine) containing 10 μM all-trans retinoic acid (RA) (Sigma-Aldrich) and cells were incubated for 48 h. On day 3, this process was repeated with fresh RA and cells were incubated for a further 48 h. On day 5, the cells were washed once in serum-free culture media to remove traces of serum. […] Differentiated cells (dSH-SY5Y) were ready to use for experiments on day 7. […]
# (§1) FIJI (https://fiji.sc) imaging processing package (J. Schindelin et al., Nat. Methods, vol. 9, no. 7, pp. 676-682, (2012)) was used for all image analysis. For quantification of fluorescence intensities, images were Z-projected to maximal intensity. […] Area-integrated intensity and mean grey value were measured as well as three selections from around the cell with no fluorescence (background). The corrected total cell fluorescence (CTCF) was then calculated using the equation: […]
# For quantification of internalised dGAE-488, a focal plane from the middle of the cell that contained maximal DAPI fluorescence was selected and subjected to analysis.
# The uptake of soluble and aggregated dGAE into dSH-SY5Y cells was investigated in order to examine whether aggregation state affects the efficiency of internalisation. The labelled dGAE-488 form was used to permit uptake to be visualised and measured having corrected for total cell fluorescence. […]
# [1] = tested on: endogenous tau in dSH-SY5Y cells; assay: Immunofluorescence of endogenous tau (AT180, AT8, Tau-1) after dGAE-488 exposure; details: 1 μM soluble dGAE-488, 24 h
# Description: Cell culture medium was aspirated from dSH-SY5Y cells and washed once with PBS. Cells were fixed in 4% (w/v) paraformaldehyde (PFA) in PBS for 15 minutes followed by three washes in PBS. For permeabilization, the cells were incubated in 0.25% (v/v) Triton X-100 in PBS for 10 minutes. Cells were blocked in 2% (w/v) BSA in PBS for 1 h, followed by three washes in PBS. Primary antibodies diluted in 2% (w/v) BSA in PBS and were incubated with the cells for 1 h. The primary antibodies and dilutions used were; AT180 (anti-pT231) (1:250) (Thermo Scientific), AT8 (anti-pS202-T205) (1:500) (Thermo Scientific) and Tau1 (dephosphorylated tau at S195, 198, 199 and 202) (Merck Millipore). Cells were incubated with goat anti-mouse-Alexa Fluor® 594 (1:1000) (Invitrogen™, Thermo Scientific) diluted in 2% (w/v) BSA in PBS for 1 h in the dark. Cells were washed 3 times in PBS between antibody incubations. Cells were mounted onto glass slides using Prolong Gold mounting medium containing 4,6-diamidino-2-phenylindole (DAPI). […]
# as §1
# Therefore, it was further investigated whether internalised soluble dGAE-488 may be capable of altering the aggregation or phosphorylation state of endogenous tau. […] Cells were examined for colocalisation of internalised dGAE-488 and endogenous tau and the fluorescence intensity of labelled tau in the cell body was quantified in individual cells for each antibody. […] We have previously shown that tau dephosphorylated between amino acids 192-204 detected using Tau-1 antibody, is found in the nucleus in dSH-SY5Y cells (Maina et al., Acta Neuropath. Comm, Vol. 6 No. 70, pp 1-13 (2018)).
# [2] = tested on: acidic vesicles (lysosomes and endosomes) in dSH-SY5Y cells; assay: LysoTracker labelling of acidic organelles and colocalisation with dGAE-488; details: soluble dGAE-488, 24 h; buffer 100±5.23%
# Description: Cells were plated on 35-mm dishes on a 1.5-mm coverslip (Mattek). Following differentiation, dGAE-488 (5 μM) was added to the cells for 24 h. For labelling lysosomes and endosomes, LysoTracker® red (Life Technologies) was diluted in culture media at a final concentration of 50 nM and incubated for 90 mins before imaging using a Leica SP8 confocal microscope.
# All confocal microscopy imaging was carried using a Leica SP8 confocal microscope. The instrument setting used PMT 3 and PMT Trans channels/lasers and images were acquired with a HC PLAPoCs2 63×/1.40 oil-immersion objective lens. Samples were scanned sequentially to prevent spectral bleed through. All images were collected as Z-stacks for all channels using a step size of 0.5 μm. Five to ten Z-stacks were taken for each sample and each experiment was repeated three times or more. […]
# Intracellular fluorescent punctate particles were observed within the cytoplasm, close to the nucleus after 24 h of exposure of neurons to soluble dGAE-488. […] There was a significant increase in the intensity of the LysoTracker® fluorescence in cells exposed to soluble dGAE-488 compared to buffer-treated control cells (211.9±9.9%, p<0.0001; FIG. 6Ai, Aii).
substance,measurement,setting,value
dGAE-488: dGAE covalently labelled with Alexa Fluor 488,488 fluorescence intensity in the cell body (internalisation),"dSH-SY5Y cells; aggregated (72 h agitated) dGAE-488, 1 μM, 24 h, mean±SEM, b194 prints AU per cell",474.1±95.97 AU and 474±96 AU
same,incubation time at which internalised protein is detected in cells,"dSH-SY5Y cells; soluble form, 5 μM dGAE-488, live confocal imaging t=0 h to 14 h",2 h
same,AT8 (pS202-T205) fluorescence intensity as a percentage of buffer-treated cells,[1]; buffer 100±3.51%,270.7±22.5%
same,AT180 (pT231) fluorescence intensity as a percentage of buffer-treated cells,[1]; buffer 100±5.2%,143.5±7.8%
same,Tau-1 (dephosphorylated tau) fluorescence intensity as a percentage of buffer-treated cells,[1]; buffer 100±7.3%,59.17±3.6%
same,LysoTracker fluorescence intensity as a percentage of buffer-treated cells,[2],211.9±9.89% and 211.9±9.9%
